Series [1] can be described thus: Viscosity by cone-plate rotor viscometer (25° C. or 60° C.). The note with it: monomer per se. It is filed as physicochemical. The protocol: Note that, a viscosity of the low viscous monofunctional monomer per se is preferably 3 mPa·s or less at 25° C., more preferably about 1 mPa·s or less at 25° C. The viscosity can be measured by means of a cone-plate rotor viscometer, VISCOMETER TV-22, manufactured by Toki Sangyo Co., Ltd., using a corn rotor (1° 34′×R24) at the rotational speed of 50 rpm, with setting the temperature of constant-temperature circulating water to 25° C.
The viscosity is measured by means of a cone-plate rotor viscometer, VISCOMETER TV-22, manufactured by Toki Sangyo Co., Ltd., using a corn rotor (1° 34′×R24) at the rotational speed of 50 rpm, with setting the temperature of constant-temperature circulating water to 25° C. or 60° C. As for the adjustment of the temperature of the circulating water, VISCOMATE VM-150III is used. […]
(A): t-butylmethacrylate, “Acryester TB” manufactured by MITSUBISHI RAYON CO., LTD. (negative), evaluated with the literature (test method: maximization method, viscosity at 25° C.: 0.9 mPa·s). The viscosity was measured by means of a cone-plate rotor viscometer, VISCOMETER TV-22, manufactured by Toki Sangyo Co., Ltd., using a corn rotor (1° 34′×R24) at the rotational speed of 50 rpm, with setting the temperature of constant-temperature circulating water to 25° C.

Another series relates to female mice. In words: Skin sensitization test, local lymph node assay (LLNA), SI value. The note with it: test substance 50.0 w/v % in acetone:olive oil 4:1, applied to both auricles once a day for three days. It is filed as in vivo. The source says:
(1) A compound having a Stimulation Index (SI value) of less than 3, where the Stimulation Index indicates the level of sensitization as measured by a skin sensitization test based on the LLNA (Local Lymph Node Assay).
Regarding the above (1), the compound having a SI value of less than 3 is considered as being negative for skin sensitization as described in literatures, for example, “Functional Material” (Kino Zairyou) September, 2005, Vol. 25, No. 9, p. 55. The lower Si value means lower skin sensitization. In the present invention, therefore, a photopolymerizable monomer having lower SI value is preferably used. The SI value is preferably less than 3, more preferably 2 or less, and even more preferably 1.6 or less.
According to the skin sensitization test of local lymph node assay (LLNA), the SI value was measured in the following manner. […]
Based on the body weights measured 2 days before the initiation of sensitization, they were categorized into 2 groups (4 mice/group) by the body weight stratified random sampling method so that the body weight of each individual was within plus or minus 20%. […]
About 24 hours after the administration of BrdU, the used animals were allowed to undergo euthanasia, and their auricular lymph nodes were sampled. […] Also, the average of the weights of the auricular lymph nodes and the standard error thereof were calculated for each group. […]

The conditions of series [2]: in vivo; cited from earlier work.

The text below walks through data of patent publication US20170073445A1, “PHOTOPOLYMERIZABLE COMPOSITION, PHOTOPOLYMERIZABLE INK, COMPOSITION CONTAINER, IMAGE OR CURED PRODUCT FORMING METHOD, IMAGE OR CURED PRODUCT FORMING DEVICE, AND IMAGE OF CURED PRODUCT” (priority 2014, published 2017).

As usually defined, the viscosity is the resistance of a fluid to flow. A low value points to easy flow.

For the compound `C=C(C)C(=O)OC(C)(C)C` [t-butylmethacrylate], in series [1], the “viscosity at 25° C.” value was 0.9 mPa·s. On the same count and under the same terms, under `C=C(C)C(=O)OCCCCC` [n-pentyl methacrylate] stands 1 mPa·s.

`C=C(C)C(=O)OCC(CO)OC(=O)C(=C)C` (centres unmarked) [glycerol dimethacrylate]: in the series on female mice, the “SI value (Stimulation Index) in the LLNA test” value was 1.2. For the compound “tricyclodecane dimethanol dimethacrylate”, in the series with female mice, the “SI value (Stimulation Index) in the LLNA test” value came out at 1.3. `O=C(c1ccccc1)C1(O)CCCCC1` [1-hydroxy-cyclohexylphenylketone]: the “Skin sensitization, evaluated with MSDS” value in series [2] is reported as “no”.
